Reference: PubChem BioAssay (NCI)
“And” between values parts separate entries of the source, which are not always exact repeats. Identical values can stand only once.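 Test compounds were applied to cells in 96-well plates for 48 hours at 5 doses. Abbreviation: GI50, concentration required for 50% inhibition of growth. TGI: total growth inhibition.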

Legend:
Experiment in all cases: DTP human tumour cell line panel, 48 h
OVCAR-3 ovarian = system: OVCAR-3 ovarian
SK-MEL-28 melanoma = system: SK-MEL-28 melanoma
MCF7 breast = system: MCF7 breast
SN12C renal = system: SN12C renal
HCT-15 colon = system: HCT-15 colon
SK-MEL-5 melanoma = system: SK-MEL-5 melanoma
A549 NSCLC = system: A549 NSCLC
RXF 393 renal = system: RXF 393 renal

Row | SMILES | TGI (OVCAR-3 ovarian) | TGI (SK-MEL-28 melanoma) | TGI (MCF7 breast) [µM] | TGI (SN12C renal) | TGI (HCT-15 colon) | TGI (SK-MEL-5 melanoma) | TGI (A549 NSCLC) | GI50 (OVCAR-3 ovarian) | GI50 (SK-MEL-28 melanoma) | GI50 (MCF7 breast) [µM] | GI50 (SN12C renal) | GI50 (HCT-15 colon) | GI50 (SK-MEL-5 melanoma) | GI50 (A549 NSCLC) | GI50 (RXF 393 renal) | TGI (RXF 393 renal)
1 | NCCC(=O)NC(Cc1cnc[nH]1)C(=O)O (stereo unspecified) | > 100 µM | > 100 µM | > 100 | > 100 µM | > 100 µM | > 100 µM | > 100 µM |  |  |  |  |  |  |  |  | 
2 | Nc1n[nH]c2ccc([C@@H]3Nc4cc5[nH]ncc5cc4[C@H]4C5CCC(C5)[C@@H]34)cc12 (stereo partly specified) | 13.3 µM | 72.2 µM | > 80.8 | > 82.9 µM | > 100 µM | 6.57 µM | > 100 µM | 0.381 µM | 10.5 µM | 0.384 | 0.525 µM | 0.431 µM | 0.493 µM | 0.584 µM |  | 
3 | COc1cc(C2CC(=O)Nc3c2cc(Br)c2ccccc32)cc(Br)c1OC (stereo unspecified) | 2.52 µM | > 100 µM | > 100 | > 100 µM | > 100 µM | > 100 µM |  | 1.14 µM | 2.98 µM | 0.642 | 2.54 µM | 0.907 µM | 2.82 µM |  | 1.73 µM | 3.93 µM
4 | CCN(CC)C(=S)SSC(=S)N(CC)CC | 32.5 µM and 29.4 µM | 35.4 µM and 97.5 µM |  | 29.3 µM and 31.9 µM | > 56.6 µM and 59.8 µM | 39.9 µM and 33.5 µM | > 71.9 µM and 146 µM | 15.1 µM and 15.3 µM | 15.8 µM and 26.8 µM |  | 15 µM and 15.5 µM | 20.1 µM and 20.9 µM | 16.6 µM and 14.6 µM | 25 µM and 33 µM | 15.8 µM and 17.3 µM | 32.4 µM and 32.9 µM
5 | CN(c1ccc(C#N)c(Cl)c1)C1CCC(NC(=O)c2ccc(N3CCN(C4CN(c5ccc6c(c5)C(=O)N(C5CCC(=O)NC5=O)C6=O)C4)CC3)cc2)CC1 (stereo unspecified) | > 100 µM | > 100 µM | > 100 | > 100 µM | > 100 µM | > 100 µM | > 100 µM | > 100 µM | > 100 µM | > 100 | > 100 µM | > 100 µM | > 100 µM | > 100 µM | > 100 µM | > 100 µM
6 | COc1ccc2c(c1)C(=O)c1c-2c(N2CCNCC2)nc2ccccc12 | 30 µM | 3.46 µM | 2.58 | 14.9 µM | 11.8 µM | 24.7 µM | 15.8 µM | 13 µM | 1.85 µM | 1.28 | 3.91 µM | 3.44 µM | 11.3 µM | 3.3 µM |  | 
7 | COc1cc2c(cc1-c1coc3cc(OCC=C(C)C)ccc3c1=O)OCO2 | > 100 µM | > 100 µM | > 100 | > 100 µM | 32.8 µM | 36.9 µM | > 100 µM |  |  |  |  |  |  |  |  | 
8 | O=C(O)[C@@H](NS(=O)(=O)c1ccc2ccccc2c1)c1ccccc1 |  | > 100 µM |  | > 100 µM | > 100 µM |  |  |  |  |  |  |  |  |  |  | > 100 µM
9 | CCOC1OC(=O)[C@H]2[C@@H]1[C@@H]1CC[C@H]2O1 (stereo partly specified) | > 100 µM | > 100 µM | > 100 | > 100 µM | > 100 µM | > 100 µM | > 100 µM | > 100 µM | 0.378 µM | > 100 | > 100 µM | > 100 µM | > 100 µM | > 100 µM | > 100 µM | > 100 µM
10 | COc1cc2c(c(OC)c1OC)-c1c(cc3c(c1OC)OCO3)CC(C)C(C)(O)C2OC(=O)c1ccccc1 (stereo unspecified) | > 100 µM | > 100 µM | > 100 | > 100 µM | > 100 µM | > 100 µM | > 100 µM |  |  |  |  |  |  |  |  | 86.2 µM
11 | CCN(CC)CCCC(C)Nc1c(-c2ccccc2)cnc2cc(Cl)ccc12 (stereo unspecified) | 26.5 µM | 3.55 µM | 17.7 | 36.5 µM | 13.6 µM | 3.64 µM | 40.7 µM | 12.5 µM | 1.82 µM | 4.54 | 8.9 µM | 3.62 µM | 1.74 µM | 8.2 µM | 3.36 µM | 11.1 µM
12 | O=C(Nc1cnc(C(F)(F)F)cn1)c1cc(Cl)ccc1O | 20.3 µM | 2.2 µM | > 100 | 52.4 µM | 3.24 µM | 0.336 µM | > 100 µM | 0.279 µM | 0.257 µM | 0.29 | 0.326 µM | 0.307 µM | 0.131 µM | 0.377 µM | 0.318 µM | 0.922 µM
13 | O=C1/C(=C/c2cccc(Br)c2)COc2ccc(O)c(O)c21 | 2.07 µM | 3.33 µM | 2.56 | 3.04 µM | 3.88 µM | 3.03 µM | 4.82 µM | 0.675 µM | 1.75 µM | 0.649 | 1.2 µM | 0.866 µM | 1.63 µM | 1.83 µM | 1.38 µM | 2.84 µM
14 | Cc1ccc(Sc2oc(-c3ccc(C)cc3)nc2[P+](c2ccccc2)(c2ccccc2)c2ccccc2)cc1 | 1.33 µM | 1.87 µM | 1.09 | 1.21 µM | 1.26 µM | 0.785 µM | 1.24 µM | 0.359 µM | 0.595 µM | 0.286 | 0.311 µM | 0.31 µM | 0.287 µM | 0.305 µM | 0.316 µM | 1.33 µM
15 | Brc1cccc(-c2cc(-c3ccc4nccnc4c3)[nH]n2)c1 |  | > 250 µM | > 250 | > 250 µM | > 250 µM | 11.7 µM | > 250 µM | 0.485 µM | 4.87 µM | 0.413 | 1.39 µM | 0.165 µM | 0.783 µM | 0.86 µM |  | 
16 | COc1cccc(C2C(C#N)=C(N)Oc3c2ccc2ccccc32)c1 (stereo unspecified) | 0.0439 µM | 24.5 µM | 12.8 | 13.5 µM | 10.2 µM | 0.108 µM | 17.6 µM | < 0.0144 µM | 2.31 µM | < 0.01 | 0.0406 µM | < 0.01 µM | < 0.0185 µM | 0.0232 µM | < 0.0161 µM | 0.975 µM
17 | C=C1C(=O)O[C@H]2[C@H]1CC/C(CNC(=O)/C=C/c1ccccc1)=C\CC[C@@]1(C)O[C@@H]21 | 1.83 µM | 4.18 µM |  | 2.79 µM | 2.06 µM | 3.06 µM | 19 µM | 0.558 µM | 1.48 µM |  | 1.15 µM | 0.672 µM | 1.68 µM | 4.39 µM | 0.864 µM | 2.15 µM
